SMILES strings stand for the structures. Where “and” joins values, the source holds several entries; their conditions need not be identical. Equal entries are not always repeated. Calls of active or inactive are those of the source.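 The calls were made as follows: active = signal-decreasing dose-response curve whose fitted half-maximal concentration is at or below twice the highest valid tested dose; inconclusive = flat fit at 30 to 70% signal loss, or poor fit; inactive = the rest.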

The test can be described thus: cell viability loss after compound exposure – 24 h, luminescence, cherry-picked samples, cytotoxicity control for PDI inhibitor project, dose response (AID 624285). The conditions noted are these: NIH3T3/HeLa viability, CellTiter-Glo ATP luminescence, 24 h; at 35 µM (top of the series). A general note: In ATP-based viability assays light output follows the ATP content of the culture.
`CC(C)N(C)C(=O)CCc1nnc(CCc2c[nH]c3ccccc23)o1`: the activity change, negative = cytotoxicity is -10.2% (inactive).
Take `CCCCNC(=O)N1CCN(C(=O)C2CCCO2)CC1` (stereo not given): the activity change, negative = cytotoxicity is -4.25% (inactive).
Then `CC(C)Cn1c(N)c(C(=O)COC(=O)c2ccc(O)cc2)c(=O)n(C)c1=O`, with -14.4% (inactive); and `CCOC(=O)c1c(CN2CCOCC2)n(-c2ccccc2)c2cc(Br)c(OC)cc12`, with -12.1% (inactive); and `COc1cc2c(cc1OC)C1C(C(=O)Nc3ccccc3N3CCN(C)CC3)c3ccccc3C(=O)N1CC2` (stereo not given), with -11.8% (inactive).
The same measure for `O=C(c1cc([N+](=O)[O-])ccc1N1CCOCC1)N1CCN(c2ccc([N+](=O)[O-])cc2)CC1`: -16.5% (inactive); for `Cc1ccc2c(=O)n3c(nc2c1)C(Cc1ccc(O)cc1)NC(=O)c1cccnc1-3` (stereo not given): -12.6% (inactive).
Take `CC(Cc1ccccc1Sc1ccccc1O)N(C)C` (stereo not given): the activity change, negative = cytotoxicity was -11.9% (inactive).
Consider `COc1ccc(C2c3ccc(O)cc3Oc3ncn(CCCO)c(=N)c32)cc1` (stereo not given), for which the activity change, negative = cytotoxicity is -8.08% (inactive).
The same measure for `C[C@@H]1CN([C@@H](C)CO)C(=O)c2cc(NC(=O)Cc3cn(C)c4ccccc34)ccc2O[C@H]1CN(C)S(=O)(=O)c1ccc(F)cc1`: 3.15% (inactive); for `O=C(Cn1nnc2ccccc21)OCC(=O)c1ccccc1`: -11.3% (inactive).
The same measure for `O=C(NCCCN1CCOCC1)C(Sc1ccccc1)c1ccccc1` (stereo not given): -12% (inactive); for `Cc1ccc(CN(c2ccc(C(=O)NCc3ccccn3)cc2)S(C)(=O)=O)cc1`: -10.4% (inactive).
The same measure for `CN1CCN(C(=O)CSc2nnc(COc3ccc(Cl)cc3)o2)CC1`: -3.96% (inactive); for `O=C1NC[C@H](Cc2ccc(O)cc2)N(CC2CCCCC2)C1=O`: -25.4% (inactive); for `COC(=O)CC1OCC=C2CN3CCC45C6=CC(=O)C(=O)C([N+](=O)[O-])=C6NC4C1C2CC35` (stereo not given): -13% (inactive).
Turning to `Cc1noc(C)c1S(=O)(=O)Nc1ccc2c(c1)CC(=O)N([C@H](C)CO)C[C@@H](C)[C@H](CN(C)S(=O)(=O)c1ccc(F)cc1)O2`, the activity change, negative = cytotoxicity is 4.61% (inactive).
As to `O=C(CCN1C(=O)C2C3C=CC(C4CC34)C2C1=O)Oc1ccccc1` (stereo not given), the activity change, negative = cytotoxicity is -3.44% (inactive).
The same measure for `CCCNC(=O)c1cccc(COc2ccccc2OC)c1`: -6.42% (inactive); for `CC(=O)c1ccc(OCc2cc(C(=O)N3CCCCC3c3cccnc3)no2)cc1` (stereo not given): -6.2% (inactive).
Then `CC(=O)N1CCC(C(=O)NCCOc2cccc(C)c2)CC1`, with -15.7% (inactive).
Then `NC(=O)c1ccc(NC(=O)COC(=O)c2ccc(Br)c(S(=O)(=O)N3CCOCC3)c2)cc1`, with -6.39% (inactive).
In the case of `NC(=O)c1nsc(C(=O)N(CC(=O)NCc2ccc(F)cc2)Cc2ccco2)c1N`, the activity change, negative = cytotoxicity was -24.6% (inactive).
Take `Cc1ccc(N2CC(C(=O)N3CCCCCC3)CC2=O)cc1` (stereo not given): the activity change, negative = cytotoxicity was -7.03% (inactive).
Then `COc1cccc(/C=C2\CCCCC2=O)c1`, with -7.65% (inactive); and `O=C(NCc1ccccc1)c1cc(C2CCCN(C(=O)C3CCCCC3)C2)on1` (stereo not given), with -16.2% (inactive).
Turning to `CCOc1ccc2nc(NS(=O)(=O)Cc3ccccc3)sc2c1`, the activity change, negative = cytotoxicity is -6.13% (inactive).
For `CCCCn1c(SCC(=O)NC2CCS(=O)(=O)C2)nc2ccccc2c1=O` (stereo not given), the activity change, negative = cytotoxicity is -8.17% (inactive).
For the molecule `CN(C)c1ccc(C2(O)C(=O)c3ccccc3C2=O)cc1`, the activity change, negative = cytotoxicity is -6.27% (inactive).
Regarding `CCOC(=O)c1ccc2c(c1)nc(SCC(=O)N1CCCCC1)n2CC`, the activity change, negative = cytotoxicity was -10.4% (inactive).
On to `CC(C)(C)OC(=O)N[C@@H](Cc1c[nH]c2ccccc12)c1nnc(SCC(N)=O)o1`, for which the activity change, negative = cytotoxicity is -7.43% (inactive).
Then `O=C(OCc1ccc(-c2ccccc2)cc1)c1cccc(O)c1`, with -8.38% (inactive); and `COc1cccc(/C=N/NC(=O)CNC(=O)C(c2ccccc2)c2ccccc2)c1O`, with -15.7% (inactive).
Then `CCCn1nnnc1NC(=O)c1cccs1`, with -5.77% (inactive); and `Cc1noc(C)c1S(=O)(=O)Nc1ccc2c(c1)CC(=O)N([C@H](C)CO)C[C@H](C)[C@H](CN(C)S(=O)(=O)c1ccc(F)cc1)O2`, with 0.678% (inactive) and -3.98% (inactive); and `CC(C)c1ccc(Nc2nc(CC(=O)O)cs2)cc1`, with -4.01% (inactive).
Regarding `CCCCn1c(SCC(=O)Nc2ccc(C)c(S(=O)(=O)N3CCOCC3)c2)nnc1C(CC)N(C)C` (stereo not given), the activity change, negative = cytotoxicity was 1.22% (inactive).
Consider `COc1cc(C2C(C(C)=O)=C(O)C(=O)N2CCc2c[nH]c3ccccc23)ccc1O` (stereo not given), for which the activity change, negative = cytotoxicity was -5.75% (inactive).
As to `Cc1cc(C)cc(CC(=O)N2CCC2(C)C(=O)NS(=O)(=O)c2ccc(Br)cc2)c1` (stereo not given), the activity change, negative = cytotoxicity was -4.97% (inactive).
For `COC(=O)c1ccc(COC(=O)CSCC(=O)Nc2ccc(C)cc2C)cc1`, the activity change, negative = cytotoxicity was -2.15% (inactive).
Then `CC(=O)c1ccc(NC(=O)c2cc(Cl)nc3ccccc23)cc1`, with -8.36% (inactive); and `C[C@H]1CN([C@@H](C)CO)C(=O)c2cccc(NS(C)(=O)=O)c2O[C@H]1CN(C)Cc1ccc(Oc2ccccc2)cc1`, with -4.63% (inactive).
The same measure for `Cc1c(C(=O)N2CCOCC2)sc2ncn(CC(=O)N3CCC(C)CC3)c(=O)c12`: -2.62% (inactive); for `O=C(Nc1cccc(S(=O)(=O)Nc2ccc(SC(F)F)cc2)c1)C1CCC1`: -13.1% (inactive); for `CC[C@]12c3[nH]c4cc(-c5ccco5)ccc4c3CCN1C(=O)[C@@H](CC(=O)NCCCOC)C[C@@H]2C(=O)N1CCN(C(=O)c2ccco2)CC1`: -9.72% (inactive).
As to `Cc1ccc(-n2ncc3c(=O)[nH]c(SCC(=O)N4CCCc5ccccc54)nc32)cc1`, the activity change, negative = cytotoxicity was -1.87% (inactive).
The same measure for `O=C1NC[C@H](Cc2ccccc2)N(C[C@H]2CCCN2C[C@H](Cc2ccc(O)cc2)N2C[C@H](Cc3ccc(O)cc3)N(CC3CCCCCC3)C(=O)C2=O)C1=O`: -18.9% (inactive).
Then `Cc1cc(=O)c(C(=O)Nc2cccc(C(=O)NC3CC3)c2)nn1-c1ccccc1`, with -3.19% (inactive).
Consider `CC1CCc2sc(C(=O)N/N=C/C3CCCCC3)cc2C1` (stereo not given), for which the activity change, negative = cytotoxicity was -8.35% (inactive).
For `CCOc1ccccc1CN1CCNC(=O)C1CC(=O)NCc1nccn1CC` (stereo not given), the activity change, negative = cytotoxicity was -14.3% (inactive).
Turning to `CNC[C@@H]1Oc2c(NS(C)(=O)=O)cccc2C(=O)N([C@@H](C)CO)C[C@H]1C`, the activity change, negative = cytotoxicity is 1.39% (inactive).
Then `C/C=C(\C)C(=O)NCCN1C2=NC[C@H](Cc3ccc(O)cc3)N2C[C@H]1Cc1ccc(O)cc1`, with -2.15% (inactive).
Then `CN(C)C(=O)CSc1n[nH]c(-c2ccco2)n1`, with -5.07% (inactive).
Then `C[C@H](CO)N1C[C@H](C)[C@@H](CN(C)S(=O)(=O)c2ccc(F)cc2)Oc2ccc(NC(=O)Cc3ccccc3)cc2C1=O`, with -14.6% (inactive); and `CCc1nc2ccc(C(=O)N(CC)CC(=O)Nc3c(F)cccc3F)cc2nc1CC`, with -5.83% (inactive).
In the case of `O=C(NCc1cccs1)C1CC(c2ccc(F)cc2)=NO1` (stereo not given), the activity change, negative = cytotoxicity is -16.4% (inactive).
With `O=C(Nc1oc2ccccc2c(=O)c1-c1ccc(Cl)cc1)c1ccco1`, the activity change, negative = cytotoxicity is -2.88% (inactive).
The same measure for `O=C1NC(Cc2ccc(O)cc2)c2nc3cc(Cl)ccc3c(=O)n2-c2ncccc21` (stereo not given): -16.3% (inactive).
Regarding `CCn1c(SCC(=O)NC2CC2)nnc1-c1ccccc1`, the activity change, negative = cytotoxicity is -6.27% (inactive).
Take `C[C@H](CO)N1C[C@H](C)[C@H](CN(C)Cc2ccc(Oc3ccccc3)cc2)Oc2c(NS(C)(=O)=O)cccc2C1=O`: the activity change, negative = cytotoxicity was -6.82% (inactive).
For the molecule `CC(=O)c1ccc(N2CCN(C(=O)c3ccc4[nH]c(C)c(C)c4c3)CC2)cc1`, the activity change, negative = cytotoxicity is -9.89% (inactive).
Regarding `COC(=O)c1cccc(CSc2nnc(C)s2)c1`, the activity change, negative = cytotoxicity was -12.9% (inactive).
For `C[C@H](CO)N1C[C@H](C)[C@@H](CN(C)Cc2ccc(Oc3ccccc3)cc2)Oc2c(NS(C)(=O)=O)cccc2C1=O`, the activity change, negative = cytotoxicity is 0.644% (inactive).
Then `CC(=O)C1=C(O)C(=O)N(CCc2c[nH]c3ccccc23)C1c1ccc(O)cc1` (stereo not given), with -8.38% (inactive).
With `C[C@H](CO)N1C[C@H](C)[C@@H](CN(C)S(=O)(=O)c2ccccc2)Oc2ccc(NC(=O)Cc3cn(C)c4ccccc34)cc2C1=O`, the activity change, negative = cytotoxicity is -1.88% (inactive).
The same measure for `COc1cccc(NS(=O)(=O)c2ccc3c(c2)C2C=CCC2C(c2ccc(C(=O)O)cc2)N3)c1` (stereo not given): -7.82% (inactive); for `C[C@@H]1O[C@@H](O[C@@H]2C(=O)c3c(O)cc(O)cc3O[C@H]2c2ccc(O)c(O)c2)[C@H](O)[C@H](O)[C@H]1O`: -7.93% (inactive); for `C=CCn1c(SCC(=O)Nc2ccc(N(C)C)cc2)nnc1-c1cccc(C)c1`: -10.1% (inactive).
Then `COc1ccc(CNC(=O)c2ccc(CS(=O)Cc3cccc(Cl)c3)o2)cc1` (stereo not given), with -9.18% (inactive); and `Cc1noc(C)c1S(=O)(=O)Nc1ccc2c(c1)CC(=O)N([C@H](C)CO)C[C@H](C)[C@@H](CN(C)S(=O)(=O)c1ccc(F)cc1)O2`, with 4.98% (inactive).

These data come from PubChem BioAssay AID624285 (Broad Institute, 2012).
